According to US12258327B2, “5-membered heteroaryl-containing aminopyridine compounds as EGFR inhibitors” (YUHAN CORPORATION, priority 2021, dated 2025):
Read-outs that look alike come from different tables or passages of the source.

Key:
EGFR del19/C797S = EGFR del19/C797S (Homo sapiens, UniProt P00533, C797S/DEL746-750); test: Biochemical EGFR kinase assay (Lance Ultra TR-FRET), double mutant del19/C797S
Procedure: Biochemical EGFR kinase assays were conducted using Lance Ultra time-resolved fluorescence resonance energy transfer (TR-FRET) technology from Perkin-Elmer. Compounds of the invention were initially diluted to 20 mM in 100% DMSO for storage and made into kinase buffer solution to create a compound concentration ranging from 0.003 μM and 10 μM.
Each kinase reactions were incubated at room temperature for 1 hour and then stopped by the addition of 4 μL of stop solution (10 mM EDTA). The specific Europium-labeled-anti-phosphopeptide antibody (PerkinElmer, AD0069) diluted in LANCE detection buffer was then added to a final concentration of 2 nM. After 60 minutes incubation at room temperature the LANCE signal was measured on an EnVision Multilabel Reader (Perkin-Elmer). Excitation wavelength was set at 320 nm and emission monitored at 615 nm (donor) and 665 nm (acceptor). The IC50 values were determined using GraphPad prism software (GraphPad Software, Inc., San Diego, CA, USA).

EGFR L858R/C797S = EGFR L858R/C797S (Homo sapiens, UniProt P00533, C797S/L858R); test: Biochemical EGFR kinase assay (Lance Ultra TR-FRET), double mutant L858R/C797S
In short: (§1)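 In this biochemical assay, phosphorylation after a one-hour room-temperature reaction was detected with europium-labelled anti-phosphopeptide antibody at 2 nM final concentration.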

EGFR wildtype (WT) = EGFR wildtype (WT) (Homo sapiens, UniProt P00533); test: Biochemical EGFR kinase assay (Lance Ultra TR-FRET), wildtype
In short: as §1

EGFR L858R/T790M/C797S = EGFR L858R/T790M/C797S (Homo sapiens, UniProt P00533, C797S/L858R/T790M); test: Biochemical EGFR kinase assay (Lance Ultra TR-FRET), triple mutant L858R/T790M/C797S
In short: as §1

EGFR del19/T790M/C797S = EGFR del19/T790M/C797S (Homo sapiens, UniProt P00533, C797S/DEL746-750/T790M); test: Biochemical EGFR kinase assay (Lance Ultra TR-FRET), triple mutant del19/T790M/C797S
In short: as §1

[1] = IC50 del19/C797S (nM) 100 μM ATP, 100 μM ATP
[2] = Km ATP, read-out: IC50 del19/C797S (nM) Km ATP
[3] = IC50 L858R/C797S (nM) 100 μM ATP, 100 μM ATP
[4] = Km ATP, read-out: IC50 L858R/C797S (nM) Km ATP
[5] = IC50 WT (nM) 100 μM ATP, 100 μM ATP
[6] = Km ATP, read-out: IC50 WT (nM) Km ATP
[7] = IC50 L858R/T790M/C797S (nM) 100 μM ATP, 100 μM ATP
[8] = Km ATP, read-out: IC50 L858R/T790M/C797S (nM) Km ATP
[9] = IC50 del19/T790M/C797S (nM) 100 μM ATP, 100 μM ATP
[10] = Km ATP, read-out: IC50 del19/T790M/C797S (nM) Km ATP
[11] = Km ATP, read-out: IC50 del19/C797S, Km ATP
[12] = Km ATP, read-out: IC50 L858R/C797S, Km ATP
[13] = Km ATP, read-out: IC50 WT, Km ATP
[14] = Km ATP, read-out: IC50 L858R/T790M/C797S, Km ATP
[15] = Km ATP, read-out: IC50 del19/T790M/C797S, Km ATP

EGFR del19/C797S, sequence (P00533 with tags, fused parts or gaps DEL746-750/C797S): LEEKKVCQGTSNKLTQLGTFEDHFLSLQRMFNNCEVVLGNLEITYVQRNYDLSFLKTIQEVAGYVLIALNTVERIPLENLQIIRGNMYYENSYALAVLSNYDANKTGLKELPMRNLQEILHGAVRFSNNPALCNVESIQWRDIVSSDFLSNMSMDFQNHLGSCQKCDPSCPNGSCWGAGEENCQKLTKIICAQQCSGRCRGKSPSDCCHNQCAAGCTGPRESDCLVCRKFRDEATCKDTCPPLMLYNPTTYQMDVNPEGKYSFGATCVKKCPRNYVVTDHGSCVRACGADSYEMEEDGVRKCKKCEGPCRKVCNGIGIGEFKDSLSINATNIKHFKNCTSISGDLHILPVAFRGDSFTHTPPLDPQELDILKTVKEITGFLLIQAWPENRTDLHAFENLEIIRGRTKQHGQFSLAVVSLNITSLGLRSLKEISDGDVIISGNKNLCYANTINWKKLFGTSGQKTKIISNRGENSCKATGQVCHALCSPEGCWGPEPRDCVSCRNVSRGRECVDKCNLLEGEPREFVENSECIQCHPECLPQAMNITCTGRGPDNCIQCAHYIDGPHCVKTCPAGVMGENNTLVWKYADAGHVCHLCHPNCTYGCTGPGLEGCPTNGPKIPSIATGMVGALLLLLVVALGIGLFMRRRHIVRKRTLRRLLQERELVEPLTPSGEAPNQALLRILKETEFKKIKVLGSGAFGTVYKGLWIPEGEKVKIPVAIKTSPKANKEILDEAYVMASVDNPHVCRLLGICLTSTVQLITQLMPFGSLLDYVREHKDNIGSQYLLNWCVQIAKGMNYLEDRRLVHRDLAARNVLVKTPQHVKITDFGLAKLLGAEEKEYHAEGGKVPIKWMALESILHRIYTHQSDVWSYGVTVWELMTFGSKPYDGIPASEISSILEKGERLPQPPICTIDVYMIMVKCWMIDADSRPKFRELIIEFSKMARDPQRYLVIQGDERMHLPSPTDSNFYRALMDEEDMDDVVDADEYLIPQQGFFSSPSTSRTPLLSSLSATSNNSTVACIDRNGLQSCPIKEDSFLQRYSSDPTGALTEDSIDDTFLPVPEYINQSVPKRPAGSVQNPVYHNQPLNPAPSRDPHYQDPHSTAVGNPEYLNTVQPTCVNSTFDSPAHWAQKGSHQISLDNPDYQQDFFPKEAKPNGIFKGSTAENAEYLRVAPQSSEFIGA
EGFR wildtype (WT), sequence (P00533 25-1210): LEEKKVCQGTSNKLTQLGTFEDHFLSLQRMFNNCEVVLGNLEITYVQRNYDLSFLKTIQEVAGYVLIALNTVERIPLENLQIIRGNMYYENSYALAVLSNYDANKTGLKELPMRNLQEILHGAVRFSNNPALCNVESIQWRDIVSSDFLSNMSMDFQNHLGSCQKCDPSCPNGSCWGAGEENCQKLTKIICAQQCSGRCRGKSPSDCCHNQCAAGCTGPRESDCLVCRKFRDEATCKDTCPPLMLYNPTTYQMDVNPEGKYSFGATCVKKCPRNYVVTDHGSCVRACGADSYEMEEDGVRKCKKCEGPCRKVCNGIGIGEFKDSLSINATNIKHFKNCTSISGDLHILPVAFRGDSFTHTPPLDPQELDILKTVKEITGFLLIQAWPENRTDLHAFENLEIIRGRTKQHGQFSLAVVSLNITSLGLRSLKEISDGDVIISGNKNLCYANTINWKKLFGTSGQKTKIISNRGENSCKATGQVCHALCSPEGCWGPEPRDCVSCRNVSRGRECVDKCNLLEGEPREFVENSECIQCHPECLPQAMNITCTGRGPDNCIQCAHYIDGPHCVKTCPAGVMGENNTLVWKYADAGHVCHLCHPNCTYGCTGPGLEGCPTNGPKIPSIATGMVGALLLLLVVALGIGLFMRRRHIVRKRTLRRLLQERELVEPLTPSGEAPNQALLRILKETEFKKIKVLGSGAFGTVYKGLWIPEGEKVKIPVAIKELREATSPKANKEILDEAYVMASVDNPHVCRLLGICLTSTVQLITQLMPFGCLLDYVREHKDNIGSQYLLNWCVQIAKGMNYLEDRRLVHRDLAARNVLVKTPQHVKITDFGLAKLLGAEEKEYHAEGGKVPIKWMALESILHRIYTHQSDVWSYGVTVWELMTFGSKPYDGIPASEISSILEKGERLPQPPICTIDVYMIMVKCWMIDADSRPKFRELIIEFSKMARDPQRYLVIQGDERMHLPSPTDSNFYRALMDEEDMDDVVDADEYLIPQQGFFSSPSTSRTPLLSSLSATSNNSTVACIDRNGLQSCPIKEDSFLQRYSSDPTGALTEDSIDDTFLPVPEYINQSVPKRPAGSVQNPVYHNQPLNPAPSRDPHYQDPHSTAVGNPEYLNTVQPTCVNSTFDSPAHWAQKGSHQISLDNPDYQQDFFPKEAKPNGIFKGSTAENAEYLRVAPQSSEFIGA
EGFR L858R/T790M/C797S, sequence (P00533 25-1210 T790M/C797S/L858R): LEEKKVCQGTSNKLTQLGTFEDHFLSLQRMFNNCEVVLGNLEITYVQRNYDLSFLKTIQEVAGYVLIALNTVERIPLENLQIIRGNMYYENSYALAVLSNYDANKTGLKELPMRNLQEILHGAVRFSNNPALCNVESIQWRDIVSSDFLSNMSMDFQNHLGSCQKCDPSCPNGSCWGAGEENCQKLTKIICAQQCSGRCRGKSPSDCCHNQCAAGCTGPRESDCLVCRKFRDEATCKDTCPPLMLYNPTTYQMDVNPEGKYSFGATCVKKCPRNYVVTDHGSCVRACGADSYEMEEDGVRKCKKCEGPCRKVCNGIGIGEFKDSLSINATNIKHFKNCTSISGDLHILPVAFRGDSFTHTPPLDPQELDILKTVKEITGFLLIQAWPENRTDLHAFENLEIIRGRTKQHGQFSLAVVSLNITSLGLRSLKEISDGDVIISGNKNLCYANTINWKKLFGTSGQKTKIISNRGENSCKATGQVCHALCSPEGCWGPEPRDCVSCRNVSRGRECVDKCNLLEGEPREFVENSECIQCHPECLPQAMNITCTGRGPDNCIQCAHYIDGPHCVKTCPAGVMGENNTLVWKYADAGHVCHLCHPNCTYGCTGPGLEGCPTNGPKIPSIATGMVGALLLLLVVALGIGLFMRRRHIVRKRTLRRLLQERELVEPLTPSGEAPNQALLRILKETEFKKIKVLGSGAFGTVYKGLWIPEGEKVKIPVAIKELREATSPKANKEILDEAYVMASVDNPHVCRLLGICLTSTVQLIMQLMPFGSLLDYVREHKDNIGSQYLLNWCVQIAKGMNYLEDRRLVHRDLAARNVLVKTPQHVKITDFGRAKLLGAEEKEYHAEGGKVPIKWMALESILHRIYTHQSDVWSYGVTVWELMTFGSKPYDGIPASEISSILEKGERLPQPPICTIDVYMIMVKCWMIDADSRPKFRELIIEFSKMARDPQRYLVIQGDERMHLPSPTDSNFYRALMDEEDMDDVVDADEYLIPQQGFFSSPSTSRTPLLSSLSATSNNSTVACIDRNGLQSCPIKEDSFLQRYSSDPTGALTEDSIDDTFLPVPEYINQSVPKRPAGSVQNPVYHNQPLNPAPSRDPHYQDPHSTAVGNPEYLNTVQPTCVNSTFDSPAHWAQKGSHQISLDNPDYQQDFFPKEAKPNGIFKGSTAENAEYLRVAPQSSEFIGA
EGFR del19/T790M/C797S, sequence (P00533 with tags, fused parts or gaps DEL746-750/T790M/C797S): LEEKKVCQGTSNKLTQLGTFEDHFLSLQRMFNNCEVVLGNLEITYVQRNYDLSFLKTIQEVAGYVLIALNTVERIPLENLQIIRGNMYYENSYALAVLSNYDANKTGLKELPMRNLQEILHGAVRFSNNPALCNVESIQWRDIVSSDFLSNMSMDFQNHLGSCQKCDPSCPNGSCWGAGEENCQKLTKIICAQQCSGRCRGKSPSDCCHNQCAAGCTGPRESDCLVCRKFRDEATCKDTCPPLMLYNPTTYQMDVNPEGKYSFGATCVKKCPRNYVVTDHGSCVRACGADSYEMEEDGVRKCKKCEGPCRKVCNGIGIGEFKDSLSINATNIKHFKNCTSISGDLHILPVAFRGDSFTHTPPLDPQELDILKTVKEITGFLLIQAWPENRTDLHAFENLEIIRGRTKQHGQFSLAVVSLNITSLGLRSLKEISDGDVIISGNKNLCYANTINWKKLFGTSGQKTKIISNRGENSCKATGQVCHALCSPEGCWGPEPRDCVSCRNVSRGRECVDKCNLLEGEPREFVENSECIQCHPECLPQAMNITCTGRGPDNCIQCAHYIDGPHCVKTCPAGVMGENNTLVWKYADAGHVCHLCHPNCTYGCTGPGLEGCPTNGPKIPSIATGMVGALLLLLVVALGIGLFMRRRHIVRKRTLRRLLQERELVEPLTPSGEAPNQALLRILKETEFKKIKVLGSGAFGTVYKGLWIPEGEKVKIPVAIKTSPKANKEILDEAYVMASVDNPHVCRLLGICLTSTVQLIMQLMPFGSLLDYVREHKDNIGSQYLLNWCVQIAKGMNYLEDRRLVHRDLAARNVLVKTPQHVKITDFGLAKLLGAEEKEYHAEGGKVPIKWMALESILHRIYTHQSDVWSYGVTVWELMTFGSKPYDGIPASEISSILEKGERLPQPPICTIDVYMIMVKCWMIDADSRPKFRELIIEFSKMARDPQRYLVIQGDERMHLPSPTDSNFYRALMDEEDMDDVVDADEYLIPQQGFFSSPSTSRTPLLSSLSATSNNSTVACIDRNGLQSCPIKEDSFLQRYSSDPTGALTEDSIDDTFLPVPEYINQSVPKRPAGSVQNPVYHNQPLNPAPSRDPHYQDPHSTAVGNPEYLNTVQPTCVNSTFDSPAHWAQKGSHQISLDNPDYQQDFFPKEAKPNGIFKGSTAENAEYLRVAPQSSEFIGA

SMILES | IC50 (EGFR del19/C797S; [1]) | IC50 (EGFR del19/C797S; [2]) | IC50 (EGFR L858R/C797S; [3]) | IC50 (EGFR L858R/C797S; [4]) | IC50 (EGFR wildtype (WT); [5]) | IC50 (EGFR wildtype (WT); [6]) | IC50 (EGFR L858R/T790M/C797S; [7]) | IC50 (EGFR L858R/T790M/C797S; [8]) | IC50 (EGFR del19/T790M/C797S; [9]) | IC50 (EGFR del19/T790M/C797S; [10]) | IC50 (EGFR del19/C797S; IC50 del19/C797S, 100 μM ATP) | IC50 (EGFR del19/C797S; [11]) | IC50 (EGFR L858R/C797S; IC50 L858R/C797S, 100 μM ATP) | IC50 (EGFR L858R/C797S; [12]) | IC50 (EGFR wildtype (WT); IC50 WT, 100 μM ATP) | IC50 (EGFR wildtype (WT); [13]) | IC50 (EGFR L858R/T790M/C797S; IC50 L858R/T790M/C797S, 100 μM ATP) | IC50 (EGFR L858R/T790M/C797S; [14]) | IC50 (EGFR del19/T790M/C797S; IC50 del19/T790M/C797S, 100 μM ATP) | IC50 (EGFR del19/T790M/C797S; [15])
O=S(=O)(C1CC1)n1cc(-c2nccc(Nc3cc(N[C@H]4CC[C@@H](NCCF)CC4)c(-c4nc(C(F)F)cs4)cn3)n2)cn1 [Example 123, N^2-(2-(1-(Cyclopropylsulfonyl)-1H-pyrazol-4-yl)pyrimidin-4-yl)-5-(4-(difluoromethyl)thiazol-2-yl)-N^4-((1s,4s)-4-((2-fluoroethyl)amino)cyclohexyl)pyridine-2,4-diamine] | 1.3 nM | 1.4 nM | 22.5 nM | 1.9 nM | > 10000 nM | 21.6 nM | 0.2 nM | 0.1 nM | 0.2 nM | 0.3 nM |  |  |  |  |  |  |  |  |  | 
O=S(=O)(C1CC1)n1cc(-c2nccc(Nc3cc(N[C@H]4CC[C@@H](O)CC4)c(-c4csc(C(F)(F)F)n4)cn3)n2)cn1 [Example 81, (1s,4s)-4-((2-((2-(1-(Cyclopropylsulfonyl)-1H-pyrazol-4-yl)pyrimidin-4-yl)amino)-5-(2-(trifluoromethyl)thiazol-4-yl)pyridin-4-yl)amino)cyclohexan-1-ol] | 3.4 nM |  | 4.8 nM |  | 1240 nM |  | 1.2 nM |  | 1.1 nM |  |  |  |  |  |  |  |  |  |  | 
CC1CC(Nc2cc(Nc3ccnc(-c4cnn(S(=O)(=O)C5CC5)c4)n3)ncc2-c2ccn(C(F)F)n2)CCC1O (stereo not drawn) [Example 105, 4-((2-((2-(1-(Cyclopropylsulfonyl)-1H-pyrazol-4-yl)pyrimidin-4-yl)amino)-5-(1-(difluoromethyl)-1H-pyrazol-3-yl)pyridin-4-yl)amino)-2-methylcyclohexan-1-ol] | 73 nM | 48.2 nM | 1100 nM | 50.7 nM | > 10000 nM | 73.2 nM | 4.8 nM | 2.5 nM | 6.2 nM | 7.7 nM |  |  |  |  |  |  |  |  |  | 
CC(C)(O)c1nc(-c2cnc(Nc3ccnc(-c4cnn(S(=O)(=O)C5CC5)c4)n3)cc2N[C@H]2CC[C@@](C)(O)CC2)cs1 [Example 93, (1s,4s)-4-((2-((2-(1-(Cyclopropylsulfonyl)-1H-pyrazol-4-yl)pyrimidin-4-yl)amino)-5-(2-(2-hydroxypropan-2-yl)thiazol-4-yl)pyridin-4-yl)amino)-1-methylcyclohexan-1-ol] | 5.3 nM |  | 15.7 nM |  | > 10000 nM |  |  |  | 4 nM |  |  |  |  |  |  |  |  |  |  | 
O=S(=O)(C1CC1)n1cc(-c2nccc(Nc3cc(N[C@H]4CC[C@@H](CCO)CC4)c(-c4ccn(C(F)F)n4)cn3)n2)cn1 [Example 135, 2-((1s,4s)-4-((2-((2-(1-(Cyclopropylsulfonyl)-1H-pyrazol-4-yl)pyrimidin-4-yl)amino)-5-(1-(difluoromethyl)-1H-pyrazol-3-yl)pyridin-4-yl)amino)cyclohexyl)ethan-1-ol] | 1.1 nM | 0.7 nM | 58 nM | 4.5 nM | > 10000 nM | 5.7 nM | 2.1 nM | 0.5 nM |  |  |  |  |  |  |  |  |  |  |  | 
O=S(=O)(C1CC1)n1cc(-c2nccc(Nc3cc(N[C@H]4CC[C@@H](NCC(F)F)CC4)c(-c4cc5n(n4)CCCC5)cn3)n2)cn1 [Example 63, N^2-(2-(1-(Cyclopropylsulfonyl)-1H-pyrazol-4-yl)pyrimidin-4-yl)-N^4-((1s,4s)-4-((2,2-difluoroethyl)amino)cyclohexyl)-5-(4,5,6,7-tetrahydropyrazolo[1,5-a]pyridin-2-yl)pyridine-2,4-diamine] | 2.2 nM | 1.8 nM | 7.7 nM | 2.2 nM | > 10000 nM | 4.4 nM | 3.3 nM | 0.7 nM |  |  |  |  |  |  |  |  |  |  |  | 

Second part, the compound after the results:

IC50 (EGFR del19/C797S; [1]) | IC50 (EGFR del19/C797S; [2]) | IC50 (EGFR L858R/C797S; [3]) | IC50 (EGFR L858R/C797S; [4]) | IC50 (EGFR wildtype (WT); [5]) | IC50 (EGFR wildtype (WT); [6]) | IC50 (EGFR L858R/T790M/C797S; [7]) | IC50 (EGFR L858R/T790M/C797S; [8]) | IC50 (EGFR del19/T790M/C797S; [9]) | IC50 (EGFR del19/T790M/C797S; [10]) | IC50 (EGFR del19/C797S; IC50 del19/C797S, 100 μM ATP) | IC50 (EGFR del19/C797S; [11]) | IC50 (EGFR L858R/C797S; IC50 L858R/C797S, 100 μM ATP) | IC50 (EGFR L858R/C797S; [12]) | IC50 (EGFR wildtype (WT); IC50 WT, 100 μM ATP) | IC50 (EGFR wildtype (WT); [13]) | IC50 (EGFR L858R/T790M/C797S; IC50 L858R/T790M/C797S, 100 μM ATP) | IC50 (EGFR L858R/T790M/C797S; [14]) | IC50 (EGFR del19/T790M/C797S; IC50 del19/T790M/C797S, 100 μM ATP) | IC50 (EGFR del19/T790M/C797S; [15]) | SMILES
237 nM | 15.5 nM | 32.5 nM | 6.3 nM | > 10000 nM | 54.5 nM | 11.5 nM | 2.6 nM | 9.9 nM | 0.3 nM |  |  |  |  |  |  |  |  |  |  | Cn1nc(-c2cnc(Nc3ccnc(-c4cnn(S(=O)(=O)C5CC5)c4)n3)cc2N[C@H]2CC[C@H](CCO)CC2)cc1C(F)(F)F [Example 263, 2-((1r,4r)-4-((2-((2-(1-(Cyclopropylsulfonyl)-1H-pyrazol-4-yl)pyrimidin-4-yl)amino)-5-(1-methyl-5-(trifluoromethyl)-1H-pyrazol-3-yl)pyridin-4-yl)amino)cyclohexyl)ethan-1-ol]
 |  |  |  |  |  |  |  |  |  | 252 nM | 133 nM | 275 nM | 15.7 nM | > 10000 nM | 175 nM | 0.8 nM | 0.3 nM | 0.9 nM | 0.7 nM | Cn1nc(-c2cnc(Nc3ccnc(N4CCC(O)C(F)(F)C4)n3)cc2NC2CCC(C)(O)CC2)cc1C(F)(F)F (stereo not drawn) [Example 353, 3,3-Difluoro-1-(4-((4-(((1s,4s)-4-hydroxy-4-methylcyclohexyl)amino)-5-(1-methyl-5-(trifluoromethyl)-1H-pyrazol-3-yl)pyridin-2-yl)amino)pyrimidin-2-yl)piperidin-4-ol]
0.9 nM | 1.1 nM | 18.8 nM | 3.3 nM | > 10000 nM | 14.9 nM | 0.2 nM | 0.1 nM | 0.2 nM | 0.3 nM |  |  |  |  |  |  |  |  |  |  | Cn1ccc(-c2cnc(Nc3ccnc(-c4cnn(S(=O)(=O)C5CC5)c4)n3)cc2NC2CCC(F)(CO)CC2)n1 (stereo not drawn) [Example 222, (4-((2-((2-(1-(Cyclopropylsulfonyl)-1H-pyrazol-4-yl)pyrimidin-4-yl)amino)-5-(1-methyl-1H-pyrazol-3-yl)pyridin-4-yl)amino)-1-fluorocyclohexyl)methanol]
 |  |  |  |  |  |  |  |  |  |  | 37.3 nM |  | 20.5 nM |  | 2550 nM |  | 1.1 nM |  | 1 nM | O=S(=O)(C1CC1)n1cc(-c2ncc(F)c(Nc3cc(N[C@H]4CC[C@@H](CCO)CC4)c(-c4ccn(CC(F)F)n4)cn3)n2)cn1 [Example 336, 2-((1s,4s)-4-((2-((2-(1-(Cyclopropylsulfonyl)-1H-pyrazol-4-yl)-5-fluoropyrimidin-4-yl)amino)-5-(1-(2,2-difluoroethyl)-1H-pyrazol-3-yl)pyridin-4-yl)amino)cyclohexyl)ethan-1-ol]
 |  |  |  |  |  |  |  |  |  |  | 198 nM |  | 44.3 nM |  | 235 nM |  | 2.8 nM |  | 2.7 nM | C[C@]1(O)CC[C@@H](Nc2cc(Nc3ccnc(N4CCC[C@H](O)C4)n3)ncc2-c2ccn(C(F)F)n2)CC1 [Example 351, (S)-1-(4-((5-(1-(Difluoromethyl)-1H-pyrazol-3-yl)-4-(((1s,4R)-4-hydroxy-4-methylcyclohexyl)amino)pyridin-2-yl)amino)pyrimidin-2-yl)piperidin-3-ol]
0.5 nM | 23.9 nM | 1.1 nM | 0.4 nM | 325 nM | 1.4 nM | 0.2 nM | 0.1 nM | 0.5 nM | 0.3 nM |  |  |  |  |  |  |  |  |  |  | O=S(=O)(C1CC1)n1cc(-c2nccc(Nc3cc(N[C@H]4CC[C@@H](CN5CCC5)CC4)c(-c4ccn(CC(F)(F)F)n4)cn3)n2)cn1 [Example 272, N^4-((1s,4s)-4-(Azetidin-1-ylmethyl)cyclohexyl)-N^2-(2-(1-(cyclopropylsulfonyl)-1H-pyrazol-4-yl)pyrimidin-4-yl)-5-(1-(2,2,2-trifluoroethyl)-1H-pyrazol-3-yl)pyridine-2,4-diamine]
8.7 nM | 5 nM | 59.9 nM | 2.7 nM | 5230 nM | 27.1 nM | 4.3 nM | 3.8 nM | 9.8 nM | 8.6 nM |  |  |  |  |  |  |  |  |  |  | Cn1nc(-c2cnc(Nc3ccnc(-c4cnn(S(=O)(=O)C5CC5)c4)n3)cc2N[C@H]2CCC[C@H](CO)C2)cc1C(F)(F)F [Example 260, ((1S,3S)-3-((2-((2-(1-(Cyclopropylsulfonyl)-1H-pyrazol-4-yl)pyrimidin-4-yl)amino)-5-(1-methyl-5-(trifluoromethyl)-1H-pyrazol-3-yl)pyridin-4-yl)amino)cyclohexyl)methanol]
